Test results: article PMC10177516, “Design and Biological Evaluation of Small-Molecule PET-Tracers for Imaging of Programmed Death Ligand 1” (Cancers, 2023)
Where two headings read alike, the source gives them in different places.

How the values were obtained:
[1] = log D7.4 determination, shake-flask n-octanol/PBS; type: physicochemical; conditions: ^64Cu-labeled, n-octanol/PBS pH 7.4, mean ± SD, n=3
Procedure: n-Octanol/water distribution coefficients (log D7.4) were determined using the shake-flask method and performed in triplicate. Twenty µL of the reaction mixture was added to a 1.5 mL Eppendorf Tube containing 580 µL of 1× PBS (pH 7.4) and 600 µL n-octanol. The two-phase system was shaken at room temperature with 1500 rpm for 5 min. After centrifugation, an aliquot of each phase was withdrawn, and the count rates were measured in a γ-counter (ISOMED2160 sodium iodide crystal detector). The average was calculated, corrected for background activity, and the log D7.4 value was calculated according to the formula: logD7.4=logAn−octanol/APBS .

[2] = Proteolytic stability in human serum, radio-HPLC; type: in vitro ADME; conditions: ^177Lu-labeled, throughout the study (up to seven days)
Procedure: The corresponding radiotracer was labeled with approx. 50 MBq of ^177Lu in 200 µL HEPES solution (pH 4) as described above. After successful labeling, the reaction mixture was diluted 1:10 with human serum. The solution was incubated at 37 °C with shaking at 500 rpm. After 1 h, 24 h, 48 h, 72 h, and 7 d, a 1 µL aliquot was analyzed by radio-TLC as described above. Evaluation and graphical plotting were performed with OriginPro® 9.0.
For investigation by radio-HPLC, a chloroform–methanol precipitation was carried out at each time point. An aliquot (100 µL) of the serum-containing incubation reaction was mixed with 400 µL of MeOH. Then, 100 µL of chloroform were added and the sample was vortexed well. For phase separation, 300 µL of ultrapure water were added, and the sample was vortexed vigorously and centrifuged for 2 min at 14,000× g. The upper, aqueous layer was carefully removed and collected. To the lower chloroform phase and the interphase containing the precipitated proteins, 400 µL of MeOH was added. The sample was mixed and centrifuged again for 3 min at 14,000× g to pellet the proteins. […] Afterward, the clear supernatant was analyzed by radio-HPLC (system E). The peak areas were normalized by measuring the activity with the gamma counter (HIDEX Deutschland Vertrieb GmbH, Mainz, Germany) at the corresponding time point. Evaluation and graphical plotting were performed with OriginPro® 9.0.

[3] = tested on: PC3 PD-L1 and PC3 mock tumors; test: Small animal PET/CT in tumor-bearing mice; type: in vivo, NMRI-nude mice; conditions: blocking with 100 nmol of the respective unlabeled compound; PET
Procedure: Male athymic NMRI-nude mice (Rj:NMRI-Foxn1nu, Janvier Labs, Le Genest-Saint-Isle, France) between 8 and 22 weeks of age were used. Under general anesthesia, [~10% desflurane (Baxter, Deerfield, IL, USA) in 30 vol% oxygen + air] and warming, animals were subcutaneously injected with 3–5 × 10^6 PC3 PD-L1 and PC3 mock cells [in 50 µL PBS + 50 µL Matrigel (Corning, Glendale, CA, USA)] into the right and left thigh, respectively. Tumor growth was monitored three times a week by caliper measurements and mice with tumor sizes above 7 mm were included in the experiments.
For PET studies, general anesthesia was induced as described above. PET and X-ray computed tomography (CT) were performed in a dedicated small animal nanoScan PET/CT scanner, with 4 animals imaged simultaneously (Mediso, Budapest, Hungary). CT images were employed for attenuation correction and anatomical referencing. Animals received three individual scans corresponding to 0–2 h (dynamic), 4.5 h, and 24 h (static) post injection. […]
Three-dimensional volumes of interest were delineated applying fixed thresholding at 35% of the measured maximum intensity. Standardized uptake values (SUV = [MBq detected activity/mL tissue]/[MBq injected activity/g body weight], […]) were determined in selected volumes of interest, among these PD-L1 and mock tumors and metabolizing organs.

[4] = tested on: human serum proteins; test: Serum protein binding, size-exclusion chromatography; type: in vitro ADME; conditions: ^177Lu-labeled; human serum 37 °C; 1 h
Procedure: The corresponding ligand was labeled with approx. 50 MBq of ^177Lu in 200 µL HEPES solution (pH 4) as described above. After successful labeling, 40 µL were mixed with 500 µL of human serum or 500 µL of 1 M HEPES solution (control), respectively. The samples were incubated at 37 °C with 500 rpm and were analyzed by size-exclusion chromatography (Jasco Germany GmbH, Pfungstadt, System F) and native discontinuous polyacrylamide gel electrophoresis (PAGE).
For size-exclusion chromatography, 20 µL aliquots were injected into system F and the obtained peak areas of serum-bound ligands and unbound ligands were used to calculate the percentage of radioligand bound to serum proteins. Evaluation and graphical plotting were performed with OriginPro® 9.0.

[5] = target: T1, PD-L1 (Homo sapiens, UniProt Q9NZQ7); test: Real-time radioligand binding (LigandTracer) on PC3 PD-L1 overexpressing cells; conditions: for kon: read-out: ka (association rate constant); for koff: read-out: kd (dissociation rate constant)
T1 construct: expressed in transfected cells; host or cells: PC3 cells, lentiviral transduction (PC3-PD-L1)
Procedure: For binding kinetics (association rate constant ka and dissociation rate constant kd) and dissociation constant (KD), a real-time assay system (LigandTracer Yellow, Ridgeview Instruments AB, Uppsala, Sweden) was employed. In this system, the petri dish containing the cells in medium (3 mL) was located on one side, while radioactivity was detected on the opposite side. The dish rotated on an inclined base, which allowed continuously measuring two or more alternating parts of the dish for bound radioligand (cells) against background (no cells). Binding was performed at room temperature (using CO2-independent medium, Gibco #18045088, ThermoFisher Germany) with or without BSA (2.5%). Association was determined through incubation with two concentrations (10 and 40 nM, 90 min each) of our ^64Cu-labeled PD-L1 small molecules, binding to PC3 PD-L1 overexpressing cells. This was followed by replacement with fresh medium and measurement of dissociation for at least 2 h. This approach provided reliable kinetic measurements as previously shown. Data were acquired in decay-corrected counts per second (CPS). Binding data were then evaluated using TraceDrawer (1.9.2, Ridgeview Instruments AB, Uppsala, Sweden). Traces were imported, potential spikes (>100% sudden increases in CPS over previous datapoint) removed, and each trace was normalized to its own baseline (=0%) and highest value (=100%). The single experiment in the presence of 2.5% BSA was processed in the same way and analyzed for the same parameters, however without replicates.

[6] = target: T1, PD-L1; test: Saturation binding assay (endpoint, with 2.5% BSA) on PD-L1-positive PC3 cells
Procedure: To determine the dissociation constant (KD) and number of binding sites (Bmax) of new PD-L1 small-molecule ligands, saturation binding was performed in at least 3 independent experiments. PC3 cells stably transduced with human PD-L1, cultured under conditions described above, were brought to room temperature followed by cooling on ice (each 15 min). The medium was removed and replaced with 200 µL assay buffer [PBS + 2.5% (w/v) bovine serum albumin (BSA; #1ETA, Carl Roth, Karlsruhe, Germany)] for total binding (TB) conditions or assay buffer containing 300 µM of 1 (in DMSO, resulting in 0.03% v/v, synthesized according to Supplementary Scheme S1) for assessment of nonspecific binding (NSB).
After 15 min preincubation for TB/NSB, 200 µL of each eight serial 1:1 dilutions (500 to 3.91 nM) of the respective radioligand were added (in triplicate). […] Radioactivity (counts per minute, CPM) of 400 µL of the lysate was measured in a gamma counter (Perkin Elmer Wizard 1480) using the nuclide-specific energy window. Additionally, we determined the binding to polystyrene in 400 µL of lysate and activity of stock solutions (50 µL). […] Protein content of the lysates (24 or 48 wells) was determined by BCA assay and a mean value (µg/mL) used for this particular dataset (plate). From CPM measurements, final values (pmol/mg protein) were calculated using mean protein content and molar activity. […]

[7] = tested on: PD-L1; set-up: method as in earlier work; conditions: reported values; cited from earlier work
[8] = medium only (no BSA), n = 2, mean ± S.D.

T1 sequence (Q9NZQ7 19-290): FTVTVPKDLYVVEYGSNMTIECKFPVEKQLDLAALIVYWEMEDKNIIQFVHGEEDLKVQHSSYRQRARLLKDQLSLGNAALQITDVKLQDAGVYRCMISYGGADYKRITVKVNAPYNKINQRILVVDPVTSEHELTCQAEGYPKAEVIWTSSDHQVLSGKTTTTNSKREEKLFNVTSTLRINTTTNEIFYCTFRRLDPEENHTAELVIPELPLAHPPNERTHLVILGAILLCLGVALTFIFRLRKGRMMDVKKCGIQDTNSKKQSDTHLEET

Structure (SMILES)	logD [1]	intact radiotracer [2] [%]	bound to human serum proteins (mean ± SD) [4] [%]	also measured
CN(CC(=O)NCC(S(=O)(=O)O)S(=O)(=O)O)Cc1cc(Cl)c(OCc2cccc(-c3cccc(OCc4cn(CCCC5CCN(C(=O)CN6CCN(CC(=O)O)CCN(CC(=O)O)CCN(CC(=O)O)CC6)CC5)nn4)c3)c2Br)cc1OCc1cncc(S(C)(=O)=O)c1 [42a]	-2.73	–	–	–
CN(CC(=O)NCC(S(=O)(=O)O)S(=O)(=O)O)Cc1cc(Cl)c(OCc2cccc(-c3cccc(OCc4cn(CCOCCOCCN5CCN(C(=O)CN6CCN(CC(=O)O)CCN(CC(=O)O)CCN(CC(=O)O)CC6)CC5)nn4)c3)c2Br)cc1OCc1cncc(S(C)(=O)=O)c1 [42c]	–	> 90	–	–
Cc1c(COc2cc(OCc3cncc(S(C)(=O)=O)c3)c(CN(C)CC(=O)NCC(S(=O)(=O)O)S(=O)(=O)O)cc2Cl)cccc1-c1cccc(OCc2cn(CCCN3CCN(C(=O)CN4CCN(CC(=O)O)CCN(CC(=O)O)CCN(CC(=O)O)CC4)CC3)nn2)c1C [43b]	–	–	–	blocking effect [3]: moderate blocking effect
Cc1c(COc2cc(OCc3cncc(S(C)(=O)=O)c3)c(CN(C)CC(=O)NCC(S(=O)(=O)O)S(=O)(=O)O)cc2Cl)cccc1-c1cccc(OCc2cn(CCOCCOCCN3CCN(C(=O)CN4CCN(CC(=O)O)CCN(CC(=O)O)CCN(CC(=O)O)CC4)CC3)nn2)c1C [43c]	-3.5	> 90	–	–
Cc1c(COc2cc(OCc3cncc(C#N)c3)c(CN(C)CC(=O)NCC(S(=O)(=O)O)S(=O)(=O)O)cc2Cl)cccc1-c1cccc(OCc2cn(CCCN3CCN(C(=O)CN4CCN(CC(=O)O)CCN(CC(=O)O)CCN(CC(=O)O)CC4)CC3)nn2)c1C [56a]	–	> 90	95.7	–
Cc1c(COc2cc(OCc3cncc(C#N)c3)c(CN(C)CC(=O)NCC(S(=O)(=O)O)S(=O)(=O)O)cc2Br)cccc1-c1cccc(OCc2cn(CCCN3CCN(C(=O)CN4CCN(CC(=O)O)CCN(CC(=O)O)CCN(CC(=O)O)CC4)CC3)nn2)c1C [56b]	–	> 90	94.6	–
Cc1c(COc2cc(OCc3cncc(C#N)c3)c(CN(C)CC(=O)NCC(S(=O)(=O)O)S(=O)(=O)O)cc2I)cccc1-c1cccc(OCc2cn(CCCN3CCN(C(=O)CN4CCN(CC(=O)O)CCN(CC(=O)O)CCN(CC(=O)O)CC4)CC3)nn2)c1C [56c]	–	–	97.6	–
CCCC[C@H]1C(=O)N(C)[C@@H](CCCC)C(=O)N[C@@H](CCCNC(=O)CCC(C(=O)O)N2CCN(CC(=O)O)CCN(CC(=O)O)CCN(CC(=O)O)CC2)C(=O)N[C@H](C(=O)NCC(N)=O)CSCC(=O)N[C@@H](Cc2ccc(O)cc2)C(=O)N(C)[C@@H](C)C(=O)N[C@@H](CC(N)=O)C(=O)N2CCC[C@H]2C(=O)N[C@@H](Cc2c[nH]cn2)C(=O)N[C@@H](CC(C)C)C(=O)N2C[C@H](O)C[C@H]2C(=O)N[C@@H](Cc2c[nH]c3ccccc23)C(=O)N[C@@H](CO)C(=O)N[C@@H](Cc2cn(C)c3ccccc23)C(=O)N1C (stereo partly drawn) [[^64Cu]Cu-DOTAGA-WL12, metal not drawn]	-2.57 ± 0.02	–	–	kon ([5]; medium + 2.5% BSA, n = 1): 7460 M⁻¹ s⁻¹; koff ([5]; medium + 2.5% BSA, n = 1): 6.74e-06 s⁻¹; kon [5, 8]: 12200 M⁻¹ s⁻¹; koff [5, 8]: 9.77e-06 s⁻¹; Bmax (maximum number of binding sites) ([6]; ^64Cu complexes, saturation binding with 2.5% BSA, PD-L1-positive PC3 cells): 56.7 ± 3.87 pmol/mg; affinity, times worse than previously reported using SPR ([6]; saturation KD versus SPR value of ref 68): approximately 15 times
Cc1c(COc2cc(OCc3cncc(C#N)c3)c(CN(C)C(CO)(CO)CO)cc2Cl)cccc1-c1cccc(OCCCN2CCC(F)(F)C2)c1C [compound 3]	–	–	–	IC50 [7]: 0.5 nM
